Data on four molecules can be found in patent publication EP0183174A2, “Substituted phenoxy urea, processes for its preparation and herbicide containing it as active ingredient” (KUMIAI CHEMICAL INDUSTRY CO., LTD., priority 1984, dated 1986).

Molecules are shown by their SMILES.

One assay has as its system Japanese bulrush. In words: Test Example 1: herbicidal test by water treatment in a paddy field. Type of assay: in vivo, Scir^pus juncoides Roxb. Set-up: key: 5: Withered; 4.5: Herbicidal effect (or phytotoxicity) in a range of 90 to 99%; 4: Herbicidal effect (or phytotoxicity) in a range of 80 to 89%; 3.5: Herbicidal effect (or phytotoxicity) in a range of 70 to 79%; 3: Herbicidal effect (or phytotoxicity) in a range of 60 to 69%; 2.5: Herbicidal effect (or phytotoxicity) in a range of 50 to 59%; 2: Herbicidal effect (or phytotoxicity) in a range of 40 to 49%; 1.5: Herbicidal effect (or phytotoxicity) in a range of 30 to 39%; 1: Herbicidal effect (or phytotoxicity) in a range of 20 to 29%; 0.5: Herbicidal effect (or phytotoxicity) in a range of 1 to 19%; 0: No herbicidal effect (or no phytotoxicity). The settings on record: evaluated thirty days after application. As to the method:
Into each porcelain pot having a diameter of 10 cm, paddy soil was filled and puddled, and seeds of barnyardgrass (Echinochloa crus-galli L.), smallflower flatsedge, monochoria and Japanese bulrush were sown, and water was filled in a-depth of 3 cm. One day later, a predetermined amount of the wettable powder prepared in Formulation Example 3 and diluted with water was dropwise applied to the surface of the water (dose of the active ingredient: 4 kg/hectare). Thereafter, they were grown in a green house. Thirty days after the application, the herbicidal effects were evaluated in accordance with the standards as identified in Table 5.

Another assay deals with redroot pigweed. Briefly: Test Example 4: herbicidal test by upland foliage treatment. Type of assay: in vivo, Amaranthus retroflexus L. How it is done: (§1) Into each plastic pot of 120 cm^2, upland soil was filled, then seeds of barnyardgrass, crabgrass, redroot pigweed and rice flatsedge were sown, and they were grown in a greenhouse until barnyardgrass. reached 3-leaf stage. Each wettable powder prepared from the test compound in accordance with Formulation Example 3 was diluted with water to give the amount of the active ingredient corresponding to 4 kg/hectare, and the diluted solution was uniformly sprayed at an application rate of 1000 liter/hectare from the top of plants by means of a small size spray, when barnyardgrass was in the 3-leaf stage. They were grown in a greenhouse, and twenty days after the application, the herbicidal effects were evaluated in accordance with the standards as identified in Table 5.

The test system of assay [1] is crabgrass. The description is as above. It counts as in vivo, Digitaria sanquinalis L. Set-up: key: 5: Withered; 4.5: Herbicidal effect (or phytotoxicity) in a range of 90 to 99%; 4: Herbicidal effect (or phytotoxicity) in a range of 80 to 89%; 3.5: Herbicidal effect (or phytotoxicity) in a range of 70 to 79%; 3: Herbicidal effect (or phytotoxicity) in a range of 60 to 69%; 2.5: Herbicidal effect (or phytotoxicity) in a range of 50 to 59%; 2: Herbicidal effect (or phytotoxicity) in a range of 40 to 49%; 1.5: Herbicidal effect (or phytotoxicity) in a range of 30 to 39%; 1: Herbicidal effect (or phytotoxicity) in a range of 20 to 29%; 0.5: Herbicidal effect (or phytotoxicity) in a range of 1 to 19%; 0: No herbicidal effect (or no phytotoxicity). How it is done: as §1

In assay [2] the test system is crabgrass. Briefly: Test Example 3: herbicidal test by upland soil treatment. It counts as in vivo, Digitaria sanquinalis L. Set-up: key: 5: Withered; 4.5: Herbicidal effect (or phytotoxicity) in a range of 90 to 99%; 4: Herbicidal effect (or phytotoxicity) in a range of 80 to 89%; 3.5: Herbicidal effect (or phytotoxicity) in a range of 70 to 79%; 3: Herbicidal effect (or phytotoxicity) in a range of 60 to 69%; 2.5: Herbicidal effect (or phytotoxicity) in a range of 50 to 59%; 2: Herbicidal effect (or phytotoxicity) in a range of 40 to 49%; 1.5: Herbicidal effect (or phytotoxicity) in a range of 30 to 39%; 1: Herbicidal effect (or phytotoxicity) in a range of 20 to 29%; 0.5: Herbicidal effect (or phytotoxicity) in a range of 1 to 19%; 0: No herbicidal effect (or no phytotoxicity). The settings on record: evaluated twenty days after application. From the text: Into each plastic pot of 600 cm^2, upland soil was filled, then seeds of barnyardgrass, crabgrass, green foxtail, redroot pigweed, rice flatsedge, rice, wheat, maize, soybean, cotton and sugar beet were sown, and they were covered with soil. A predetermined amount of the wettable powder prepared from the test compound in accordance with Formulation Example 3 and diluted with water, was uniformly applied to the surface of the soil at an application rate of 1000 liter/hectare by means of a small size spray. They were grown in a greenhouse, and twenty days after the application, the herbicidal effects and phytotoxicity were evaluated in accordance with the standards as identified in Table 5.

A further assay concerns barnyardgrass. In words: Test Example 4: herbicidal test by upland foliage treatment. Type of assay: in vivo, Echinochloa crus-galli L. The arrangement: key: 5: Withered; 4.5: Herbicidal effect (or phytotoxicity) in a range of 90 to 99%; 4: Herbicidal effect (or phytotoxicity) in a range of 80 to 89%; 3.5: Herbicidal effect (or phytotoxicity) in a range of 70 to 79%; 3: Herbicidal effect (or phytotoxicity) in a range of 60 to 69%; 2.5: Herbicidal effect (or phytotoxicity) in a range of 50 to 59%; 2: Herbicidal effect (or phytotoxicity) in a range of 40 to 49%; 1.5: Herbicidal effect (or phytotoxicity) in a range of 30 to 39%; 1: Herbicidal effect (or phytotoxicity) in a range of 20 to 29%; 0.5: Herbicidal effect (or phytotoxicity) in a range of 1 to 19%; 0: No herbicidal effect (or no phytotoxicity). How it is done:
as §1

The subject of another assay is rice flatsedge. Described as above. Type of assay: in vivo, Cy^perus iria L. Set-up: key: 5: Withered; 4.5: Herbicidal effect (or phytotoxicity) in a range of 90 to 99%; 4: Herbicidal effect (or phytotoxicity) in a range of 80 to 89%; 3.5: Herbicidal effect (or phytotoxicity) in a range of 70 to 79%; 3: Herbicidal effect (or phytotoxicity) in a range of 60 to 69%; 2.5: Herbicidal effect (or phytotoxicity) in a range of 50 to 59%; 2: Herbicidal effect (or phytotoxicity) in a range of 40 to 49%; 1.5: Herbicidal effect (or phytotoxicity) in a range of 30 to 39%; 1: Herbicidal effect (or phytotoxicity) in a range of 20 to 29%; 0.5: Herbicidal effect (or phytotoxicity) in a range of 1 to 19%; 0: No herbicidal effect (or no phytotoxicity). How it is done:
as §1

[3] abbreviates: water treatment in paddy field pot, dose of active ingredient 4 kg/hectare.
Where [4] appears, read: active ingredient 4 kg/hectare, foliage spray 1000 liter/hectare at 3-leaf stage of barnyardgrass, twenty days after application.
Setting [5] is: upland foliage treatment, 4 kg/hectare active ingredient, sprayed at 1000 liter/hectare at barnyardgrass 3-leaf stage, evaluated twenty days after application.

Take `CC(C)N(C)C(=O)NOc1cc(Cl)cc(Cl)c1` [Compound No. 186, 3-(3,5-Dichlorophenoxy)-1-isopropyl-1-methyl urea trichloroacetate]: the “Herbicidal effects Japanese bulrush” value in the assay on Japanese bulrush (setting [3]) came out at 5. Moreover, the “Herbicidal effects Redroot pigweed” value in the assay on redroot pigweed (setting [4]) is on record as 2 (Herbicidal effect (or phytotoxicity) in a range of 40 to 49%). Further, the “Herbicidal effects Crabgrass” value with crabgrass [1] (setting [4]) was 5. The “Herbicidal effects Crab-grass” value with crabgrass [2] (Dose 1 kg/HA) and with crabgrass [2] (Dose 4 kg/HA) was 5 in each case. Further, the “Herbicidal effects Barnyard-grass” value in the assay with barnyardgrass (setting [4]) stood at 5. Further, the “Herbicidal effects Rice flatsedge” value in the assay on rice flatsedge (setting [4]) is on record as 4 (Herbicidal effect (or phytotoxicity) in a range of 80 to 89%).
Regarding `CON(C)C(=O)NOc1cc(Cl)ccc1Cl` [Compound No. 242, 3-(2,5-Dichlorophenoxy)-1-methoxy-1-methyl urea], the “Herbicidal effects Japanese bulrush” value in the assay with Japanese bulrush (setting [3]) is 5. The “Herbicidal effects Redroot pigweed” value in the assay with redroot pigweed (setting [5]) is 3 (Herbicidal effect (or phytotoxicity) in a range of 60 to 69%). In addition, in the assay on crabgrass [1] (setting [5]), the “Herbicidal effects Crabgrass” value amounted to 5. The “Herbicidal effects Crab-grass” value in the assay with crabgrass [2] (Dose 1 kg/HA) and in the assay on crabgrass [2] (Dose 4 kg/HA) was 5 each time. The “Herbicidal effects Barnyard-grass” value in the assay with barnyardgrass (setting [5]) was 4 (Herbicidal effect (or phytotoxicity) in a range of 80 to 89%). In the assay on rice flatsedge (setting [5]), the “Herbicidal effects Rice flatsedge” value is 5.
For `COCCNC(=O)NOc1cc(Cl)ccc1Cl` [Compound No. 243], in the assay on Japanese bulrush (setting [3]), the “Herbicidal effects Japanese bulrush” value is reported as 5. Also, the “Herbicidal effects Redroot pigweed” value in the assay with redroot pigweed (setting [5]) is on record as 4 (Herbicidal effect (or phytotoxicity) in a range of 80 to 89%). The “Herbicidal effects Crabgrass” value with crabgrass [1] (setting [5]) is 4 (Herbicidal effect (or phytotoxicity) in a range of 80 to 89%). In addition, the “Herbicidal effects Crab-grass” value with crabgrass [2] (Dose 1 kg/HA) and in the assay with crabgrass [2] (Dose 4 kg/HA) was 5 each time. Further, the “Herbicidal effects Barnyard-grass” value in the assay on barnyardgrass (setting [5]) is listed as 5. Besides, the “Herbicidal effects Rice flatsedge” value in the assay on rice flatsedge (setting [5]) stood at 5.
In the case of `CN(C)C(=O)NOc1cc(Cl)ccc1Cl` [Compound No. 1, 3-(2,5-Dichlorophenoxy)-1,1-dimethyl urea], in the assay with Japanese bulrush (dose of the active ingredient 4 kg/hectare, wettable powder applied to water surface one day after sowing), the “Herbicidal effects Japanese bulrush” value is on record as 5. For the same molecule, the “Herbicidal effects Redroot pigweed” value in the assay with redroot pigweed (setting [4]) is given as 4 (Herbicidal effect (or phytotoxicity) in a range of 80 to 89%). Moreover, in the assay on crabgrass [1] (setting [4]), the “Herbicidal effects Crabgrass” value is 4 (Herbicidal effect (or phytotoxicity) in a range of 80 to 89%). Also, the “Herbicidal effects Crab-grass” value in the assay on crabgrass [2] (Dose 1 kg/HA) and in the assay on crabgrass [2] (Dose 4 kg/HA) was 5 throughout. Moreover, the “Herbicidal effects Barnyard-grass” value with barnyardgrass (setting [4]) is reported as 4 (Herbicidal effect (or phytotoxicity) in a range of 80 to 89%). Also, the “Herbicidal effects Rice flatsedge” value with rice flatsedge (setting [4]) was found to be 5.
